The values below come from US20090012046A1, “Methods of Treating Mutated Hiv” (priority 2006, published 2009).

Where “and” joins values, the source holds several entries; their conditions need not be identical. Equal values may be shown once. Where a name gives a salt, the structure may show the parent alone. Bounds are passed on as bounds.

What all share (assay type): cell-based
One assay has as its system HIV-1 IIIB. Nature of the assay: In vitro selection of viral strains resistant to RT inhibitors in MT4-LTR-EGFP cells. Particulars: NcRTI-1: prolonged exposure (190 days). An excerpt:
To in vitro select viral strains resistant to RT inhibitors, MT4-LTR-EGFP cells were infected in the presence of the inhibitor (at 2 or 3 times EC50). Cultures were passaged every 3 to 4 days at the same concentration of inhibitor, until full virus breakthrough. At that time, virus was harvested and used for a new round of selection at a higher compound concentration. At each breakthrough, the harvested virus was genotyped to identify acquired mutations. For several RT inhibitors, alone or in combination, the mutations selected when replicating wild type HIV-1 (IIIB) in their presence, were determined (see Table 3).

The test system of the next assay is HIV-2 (ROD). Nature of the assay: Susceptibility of HIV-2 strain.
Assay [1] concerns HIV-1 strain with RT mutations M041L D067N K070R T215Y. Put plainly: Susceptibility of site-directed mutant strain. Particulars: SDM strain M041L D067N K070R T215Y. An excerpt:
(§1) Site-directed mutant RT coding sequences were generated from a pGEM vector containing the HIV-1 clone HXB2 protease and RT coding sequence by using a QuikChange™ site-directed mutagenesis kit, and HPLC-purified primers. Plasmids were sequenced to confirm that they contained the desired mutations. Mutant viruses were created by recombination of the mutant protease-RT sequence with a protease-RT deleted HIV-1 HXB2 proviral clone^2.

Assay [2] relates to HIV-1 strain with RT mutation K065R. Put plainly: Susceptibility of site-directed mutant strain. Particulars: SDM strain K065R.
Excerpt: as §1

Assay [3] relates to HIV-1 strain with RT mutations K065R M184V. Nature of the assay: Susceptibility of site-directed mutant strain. The settings on record: SDM strain K065R M184V.
Excerpt: as §1

Assay [4] relates to HIV-1 strain with RT mutations K101E K103N. Nature of the assay: Susceptibility of site-directed mutant strain. Particulars: SDM strain K101E K103N.
Excerpt: as §1

The test system of assay [5] is HIV-1 strain with RT mutations Y115F M184V. Put plainly: Susceptibility of site-directed mutant strain. Particulars: SDM strain Y115F M184V.
Excerpt: as §1

Assay [6] concerns HIV-1 strain with RT mutation Y181C. Nature of the assay: Susceptibility of site-directed mutant strain. Particulars: SDM strain Y181C.
Excerpt: as §1

The subject of assay [7] is HIV-1 strain with RT mutation M184V. Put plainly: Susceptibility of site-directed mutant strain. Particulars: SDM strain M184V.
Excerpt: as §1

The subject of assay [8] is HIV-1 strain with RT mutations K103N Y181C. Nature of the assay: Susceptibility of site-directed mutant strain. Particulars: SDM strain K103N Y181C.
Excerpt: as §1

For assay [9], the system named is HIV-1 strain with RT mutation Y115F. Put plainly: Susceptibility of site-directed mutant strain. The settings on record: SDM strain Y115F.
Excerpt: as §1

The test system of assay [10] is HIV-1 strain with RT mutations L100I K103N. Put plainly: Susceptibility of site-directed mutant strain. The settings on record: SDM strain L100I K103N.
Excerpt: as §1

The test system of assay [11] is HIV-1 strain with RT mutation K103N. Nature of the assay: Susceptibility of site-directed mutant strain. Particulars: SDM strain K103N.
Excerpt: as §1

Assay [12] relates to HIV-1 strain with RT mutations T069S ins069-070S-S L210W T215Y. Put plainly: Susceptibility of site-directed mutant strain. Particulars: SDM strain T069S ins069-070S-S L210W T215Y.
Excerpt: as §1

The test system of assay [13] is HIV-1 strain with RT mutations F227C L234I. Nature of the assay: Susceptibility of site-directed mutant strain. The settings on record: SDM strain F227C L234I.
Excerpt: as §1

For assay [14], the system named is HIV-1 strain with RT mutation Y188L. Put plainly: Susceptibility of site-directed mutant strain. Particulars: SDM strain Y188L.
Excerpt: as §1

Assay [15] concerns HIV-1 strain with RT mutations L100I K103N E138G V179I Y181C. Nature of the assay: Susceptibility of site-directed mutant strain. The settings on record: SDM strain L100I K103N E138G V179I Y181C.
Excerpt: as §1

Assay [16] concerns HIV-1 strain with RT mutations A62V V75I F77L F116Y Q151M. Nature of the assay: Susceptibility of site-directed mutant strain. Particulars: SDM strain A62V V75I F77L F116Y Q151M.
Excerpt: as §1

For a further assay, the system named is clinical HIV-1 isolates. Put plainly: Susceptibility of recombinant clinical HIV-1 isolates to RT inhibitors (fold change in EC50). The procedure:
The susceptibility of over 6000 recent clinical HIV-1 isolates for NcRTI-1 and different N(t)RTIs and NNRTIs was assessed.
Recombinant HIV-1 viruses, derived from clinical samples, were constructed by cotransfection of MT4 cells with sample derived viral protease and RT coding sequences and an HIV-1 HXB2-derived proviral clone deleted in the protease and RT coding region^2.

[17] abbreviates: over 6000 recent clinical HIV-1 isolates.

For `Nc1nc(=O)n([C@@H]2CS[C@H](CO)O2)cc1F` [FTC, emtricitabine], the “selection of the K65R mutation when combined with TDF” value in the assay on HIV-1 IIIB is “the K65R mutation was selected”.

Turning to `Nc1ccn([C@@H]2CS[C@H](CO)O2)c(=O)n1` [3TC, lamivudine], the Fold change is listed as 0.6 in the assay with HIV-2 (ROD); 8.1 in assay [1]; more than 20 in assay [2]; more than 100 in assay [3]; 1.3 in [4]; more than 100 in assay [5]. In addition, the Fold change is listed as 1.1 in assay [6]; more than 100 in [7]; 0.9 in [8]; 0.7 in [9]; 0.5 in assay [10]; 1.1 in assay [11]. The Fold change in [12] is recorded as 9.5; in [13] it was 1.1; in assay [14], 1.9; in assay [15] it was 0.7.

Compound `Cc1cn([C@H]2C[C@H](N=[N+]=[N-])[C@@H](CO)O2)c(=O)[nH]c1=O` [ZDV, zidovudine] registered a Fold change in the assay with HIV-2 (ROD) of 0.1.

Take `Cc1ccnc2c1NC(=O)c1cccnc1N2C1CC1` [NVP, nevirapine]: the Fold change is reported as more than 100 in the assay on HIV-2 (ROD); 2.8 in [1]; 3.4 in [2]; 1.2 in assay [3]; more than 100 in assay [4]; 2.3 in assay [5]. The Fold change in [6] is on record as more than 100; in assay [7], 2.3; in assay [8], more than 100; in assay [9] it was 2.9; in assay [10], more than 100; in [11] it was 50. For the same compound, the Fold change is 1.1 in assay [12], 31 in [13], more than 100 in [14] and more than 100 in assay [15].

As to `CC(C)OC(=O)OCOP(=O)(CO[C@H](C)Cn1cnc2c(N)ncnc21)OCOC(=O)OC(C)C` [TDF, tenofovir disoproxil fumarate], the Fold change in the assay on HIV-2 (ROD) was found to be 1.0; in [1] it was 3.3; in assay [2], 6.0; in [3] it was 2.3; in [4], 0.5; in assay [5], 0.9. For the same compound, the Fold change is on record as 0.7 in [6]; 0.8 in assay [7]; 3.7 in assay [16]; 0.5 in assay [8]; 1.0 in assay [9]; 0.3 in assay [10]. For the same compound, the Fold change in assay [11] stood at 0.6; in assay [12] it was 2.3; in assay [13], 0.6; in [14], 0.7; in assay [15], 0.4.

With `Cn1c2ccccc2c2c1cc(C#N)c(=O)n2-c1ccc([N+](=O)[O-])cc1` [NcRTI-1, 5-Methyl-1-(4-nitro-phenyl)-2-oxo-2,5-dihydro-1H-pyrido[3,2-b]indole-3-carbonitrile], the Fold change in the assay with HIV-2 (ROD) was 14; in [1] it was 3.8; in [2], 0.46 and 0.5; in assay [3] it was 0.89 and 0.9; in [4], 2.1; in assay [5] it was 75. For the same compound, the Fold change in assay [6] is on record as 2.3; in assay [7], 5.0; in assay [16], 1.0; in assay [8], 2.1; in assay [9] it was 7.9; in [10], 2.6. The Fold change was 1.9 in assay [11]; 0.9 in assay [12]; 2.0 in assay [13]; 1.7 in assay [14]; 2.5 in assay [15]. In the assay with clinical HIV-1 isolates, the “effect of NNRTI resistance mutations and N(t)RTI multi-drug resistant patterns (TAMs, T69 insertion complex, Q151M complex) on activity” value is “not affected”. Also, the “cross-resistance with the NNRTIs EFV or NVP and the N(t)RTIs ZDV, TDF, ABC” value in the assay with clinical HIV-1 isolates (clinical HIV-1 isolates) is on record as “No cross-resistance was observed”. Also, in the assay with clinical HIV-1 isolates (clinical isolates with K65R), the “effect of the K65R mutation on susceptibility” value was “hypersusceptibility”. Also, the “FC (fold change in EC50)” value in the assay on clinical HIV-1 isolates (clinical isolates with combination of mutations M184V+Y115F, random set of more than 1700 isolates) was 75. Besides, in the assay with clinical HIV-1 isolates (setting [17]), the “profiled clinical isolates showing resistance (FC>10)” value was determined as 2.3%. Also, the “profiled clinical isolates that remained susceptible (fold change in EC50 (FC)<4)” value with clinical HIV-1 isolates (setting [17]) is recorded as 82%. The “profiled clinical isolates with reduced susceptibility (FC4-10)” value in the assay on clinical HIV-1 isolates (setting [17]) was 15.7%. The “selection of the K65R mutation when combined with TDF” value with HIV-1 IIIB is listed as “did not result in selection of the K65R mutation”.
